The source made the active and inactive calls. The rule behind the calls is not given here.
Assays:
[1] = Inhibition of HSP90 in rabbit reticulocyte lysates incubated for 3 hrs by denatured luciferase refolding assay; format: subcellular, Oryctolagus cuniculus
[2] = test system: Reticulocyte; test: Inhibition of HSP90 in rabbit reticulocyte lysates at 10 uM incubated for 3 hrs by denatured luciferase refolding assay; format: subcellular; details: Oryctolagus cuniculus
[3] = test system: SMMC-7721; test: Antiproliferative activity against human SMMC-7721 cells assessed as reduction in cell viability incubated for 48 hrs by MTT assay; format: functional, cell-based; details: SMMC-7721, 48 h
[4] = test system: A549; test: Antiproliferative activity against human A549 cells assessed as reduction in cell viability incubated for 48 hrs by MTT assay; format: functional, cell-based; details: A549, 48 h
[5] = test system: SW480; test: Antiproliferative activity against human SW480 cells assessed as reduction in cell viability incubated for 48 hrs by MTT assay; format: functional, cell-based; details: SW480, 48 h
[6] = test system: MCF7; test: Antiproliferative activity against human MCF7 cells assessed as reduction in cell viability incubated for 48 hrs by MTT assay; format: functional, cell-based; details: MCF7, 48 h
[7] = test system: HL-60; test: Antiproliferative activity against human HL-60 cells assessed as reduction in cell viability incubated for 48 hrs by MTT assay; format: functional, cell-based; details: HL-60, 48 h
[8] = test system: Reticulocyte; test: Inhibition of HSP90 in rabbit reticulocyte lysates at 500 uM incubated for 3 hrs by denatured luciferase refolding assay; format: subcellular; details: Oryctolagus cuniculus
[9] = molecular target: T1, Heat shock protein HSP90 (Homo sapiens) (UniProt P07900+P08238); test: Binding affinity to full length HSP90 (unknown origin) expressed in Escherichia coli BL21(DE3) cells at 20 uM by NMR STD assay
[10] = molecular target: T1, Heat shock protein HSP90 (Homo sapiens); test: Inhibition of HSP90 in human HL-60 cells assessed as increase in HSP27 protein expression incubated for 24 hrs by western blot analysis; format: cell-based; details: dose 1-10 µM
[11] = molecular target: T1, Heat shock protein HSP90 (Homo sapiens); test: Inhibition of HSP90 in human HL-60 cells assessed as decrease in CDK4 protein expression incubated for 24 hrs by western blot analysis; format: cell-based; details: dose 1-10 µM

Structure (SMILES)	inhibition [2] [%]	further results
CC(=O)C[C@@H]1C(=O)C(CO)=CC[C@](C)(CCC=C(C)C)[C@H]1/C=C/OC(=O)C=C(C)C	30	
CC(C)=CCC[C@@]1(C)CC=C(CCl)c2nnc(C)cc2[C@@H]1/C=C/OC(=O)C=C(C)C	85.9	IC50 [1]: 2.37 µM
CC(C)=CCC[C@@]1(C)CC=C(C=O)c2[nH]c(C)c(Cl)c2[C@@H]1/C=C/OC(=O)C=C(C)C	45	
CC(=O)O[C@H]1C(=O)[C@@]2(C)[C@H]([C@H](OC(=O)c3ccccc3)[C@]3(O)C[C@H](OC(=O)[C@H](O)[C@@H](NC(=O)c4ccccc4)c4ccccc4)C(C)=C1C3(C)C)[C@]1(OC(C)=O)CO[C@@H]1C[C@@H]2O [PACLITAXEL]		IC50 [3]: 0.097 µM; IC50 [4]: < 0.008 µM; IC50 [5]: < 0.008 µM; IC50 [6]: < 0.008 µM; IC50 [7]: < 0.008 µM
CC(=O)C[C@@H]1C(=O)C(CO)=CC[C@](C)(CCC(=O)C(C)C)[C@H]1/C=C/OC(=O)C=C(C)C	0.69	
CO[C@@H]1[C@@H](OC(N)=O)[C@@H](O)[C@H](Oc2ccc3c(O)c(NC(=O)c4ccc(O)c(CC=C(C)C)c4)c(=O)oc3c2C)OC1(C)C [NOVOBIOCIN]		inhibition [8]: 78.9%; IC50 [1]: 468 µM
CC(=O)C[C@@H]1C(=O)[C@H](CO)CC[C@](C)(CCCC(C)C)[C@H]1/C=C/OC(=O)C=C(C)C	22.8	
CC(C)=CCC[C@@]1(C)CC=C(CO)[C@H]2O[C@](C)(O)C[C@H]2[C@@H]1/C=C/OC(=O)C=C(C)C	14.2	
CC(C)=CCC[C@@]1(C)CC=C(CNc2ccc(F)cc2)c2nnc(C)cc2[C@@H]1/C=C/OC(=O)C=C(C)C	49.3	
CC(C)=CCC[C@@]1(C)CC=C(COC(=O)c2ccc3cc[nH]c3c2)c2oc(C)cc2[C@@H]1/C=C/OC(=O)C=C(C)C	42.9	
CC(C)=CCC[C@@]1(C)CC=C(Cn2ccnc2)c2oc(C)cc2[C@@H]1/C=C/OC(=O)C=C(C)C	37.1	
CC(=O)C[C@@H]1C(=O)C(CF)=CC[C@](C)(CCC=C(C)C)[C@H]1/C=C/OC(=O)C=C(C)C	84.3	IC50 [1]: 4.1 µM
CC(=O)C[C@@H]1C(=O)C(CN2CCN(C(C)C)CC2)=CC[C@](C)(CCC=C(C)C)[C@H]1/C=C/OC(=O)C=C(C)C	23.8	
CC(=O)C[C@@H]1C(=O)C(CN2CCOCC2)=CC[C@](C)(CCC=C(C)C)[C@H]1/C=C/OC(=O)C=C(C)C	14.2	
CC(C)=CCC[C@@]1(C)CC=C(CNc2ccc(F)cc2)c2oc(C)cc2[C@@H]1/C=C/OC(=O)C=C(C)C	13.1	
CC(=O)C[C@@H]1C(=O)C(COC(=O)c2cc(Cl)ccc2N)=CC[C@](C)(CCC=C(C)C)[C@H]1/C=C/OC(=O)C=C(C)C	61.8	IC50 [1]: 4.09 µM
CC(=O)C[C@@H]1C(=O)C(COC(C)=O)=CC[C@](C)(CCC=C(C)C)[C@H]1/C=C/OC(=O)C=C(C)C	34.9	
CC(=O)C[C@@H]1C(=O)C(CNc2ccc(F)cc2)=CC[C@](C)(CCC=C(C)C)[C@H]1/C=C/OC(=O)C=C(C)C	64.5	
CC(C)=CCC[C@@]1(C)CC=C(CN2CCN(C(C)C)CC2)c2nnc(C)cc2[C@@H]1/C=C/OC(=O)C=C(C)C	20.1	
CC(C)=CCC[C@]1(C)/C=C/[C@@H](OC(=O)C=C(C)C)[C@](C)(O)/C=C/C(=O)/C(CN2CCN(C)CC2)=C\C1	93.6	IC50 [1]: 0.98 µM
CC(=O)C[C@@H]1C(=O)C(CS)=CC[C@](C)(CCC=C(C)C)[C@H]1/C=C/OC(=O)C=C(C)C	0.32	
CC(C)=CCC[C@@]1(C)CC=C(CF)c2nnc(C)cc2[C@@H]1/C=C/OC(=O)C=C(C)C	77.8	IC50 [3]: 15.7 µM; IC50 [4]: 20.5 µM; IC50 [1]: 0.37 µM; IC50 [5]: 18.2 µM; IC50 [6]: 17.6 µM; IC50 [7]: 3.45 µM
CC(=O)C[C@@H]1C(=O)C(COC(=O)C2CCCCC2)=CC[C@](C)(CCC=C(C)C)[C@H]1/C=C/OC(=O)C=C(C)C	40.3	
CC(=O)C[C@@H]1C(=O)C(COC(=O)c2ccccc2)=CC[C@](C)(CCC=C(C)C)[C@H]1/C=C/OC(=O)C=C(C)C	36.9	
CC(=O)C[C@@H]1C(=O)C(CCl)=CC[C@](C)(CCC=C(C)C)[C@H]1/C=C/OC(=O)C=C(C)C	53.1	
CC(C)=CCC[C@@]1(C)CC=C(COC(=O)c2ccc3cc[nH]c3c2)c2nnc(C)cc2[C@@H]1/C=C/OC(=O)C=C(C)C	66.6	IC50 [1]: 4.57 µM
CC(=O)C[C@@H]1C(=O)C(CO)=CC[C@](C)(CCC2OC2(C)C)[C@H]1/C=C/OC(=O)C=C(C)C (stereo partly specified)	36.6	
CC(C)=CCC[C@@]1(C)CC=C(CO)C(=O)[C@H]2C[C@@](C)(O)[C@@H](C=O)[C@@H]21	13.3	

Continued, in another order:

inhibition [2] [%]	Structure (SMILES)	further results
68.8	CC(C)=CCC[C@@]1(C)CC=C(CF)c2[nH]c(C)cc2[C@@H]1/C=C/OC(=O)C=C(C)C	IC50 [1]: 3.61 µM
32.6	CC(C)=CCC[C@@]1(C)CC=C(CCl)c2oc(C)cc2[C@@H]1/C=C/OC(=O)C=C(C)C	
57	CC(C)=CCC[C@@]1(C)CC=C(COC(=O)CCC(=O)Nc2ccc(F)cc2)c2oc(C)cc2[C@@H]1/C=C/OC(=O)C=C(C)C	
66.8	CC(=O)C[C@@H]1C(=O)C(COC(=O)CCC(=O)O)=CC[C@](C)(CCC=C(C)C)[C@H]1/C=C/OC(=O)C=C(C)C	IC50 [1]: 7.52 µM
10.6	CC(C)=CCC[C@@]1(C)CC=C(CO)c2[nH]c(C)cc2[C@@H]1/C=C/OC(=O)C=C(C)C	
71	CC(C)=CCC[C@@]1(C)CC=C(COC(=O)CCC(=O)O)c2[nH]c(C)cc2[C@@H]1/C=C/OC(=O)C=C(C)C	IC50 [1]: 6.05 µM
50.8	CC(C)=CCC[C@@]1(C)CC=C(COC(=O)c2ccc3cc[nH]c3c2)c2[nH]c(C)cc2[C@@H]1/C=C/OC(=O)C=C(C)C	
54.1	CC(C)=CCC[C@@]1(C)CC=C(COC(=O)CCC(=O)Nc2ccc(F)cc2)c2nnc(C)cc2[C@@H]1/C=C/OC(=O)C=C(C)C	
48	CC(C)=CCC[C@@]1(C)CC=C(COC(=O)CCC(=O)Nc2ccc(F)cc2)c2[nH]c(C)cc2[C@@H]1/C=C/OC(=O)C=C(C)C	
6.37	CC(C)=CCC[C@@]1(C)CC=C(CN2CCOCC2)c2[nH]c(C)cc2[C@@H]1/C=C/OC(=O)C=C(C)C	
23.6	CC(C)=CCC[C@@]1(C)CC=C(CO)c2nnc(C)cc2[C@@H]1/C=C/OC(=O)C=C(C)C	
82.3	CC(C)=CCC[C@@]1(C)CC=C(CO)c2oc(C)cc2[C@@H]1/C=C/OC(=O)C=C(C)C	
94.6	CC(C)=CCC[C@@]1(C)CC=C(COC(=O)CCC(=O)O)c2nnc(C)cc2[C@@H]1/C=C/OC(=O)C=C(C)C	IC50 [3]: > 40 µM; IC50 [4]: > 40 µM; IC50 [1]: 0.27 µM; IC50 [5]: > 40 µM; IC50 [6]: > 40 µM; IC50 [7]: > 40 µM
88.2	CC(C)=CCC[C@@]1(C)CC=C(COC(=O)CCC(=O)O)c2oc(C)cc2[C@@H]1/C=C/OC(=O)C=C(C)C	IC50 [3]: > 40 µM; IC50 [4]: > 40 µM; IC50 [1]: 0.27 µM; Activity [9]: Active; IC50 [5]: > 40 µM; IC50 [6]: > 40 µM; inhibition [10]: Dose-Dependent Effect; IC50 [7]: 16.9 µM; inhibition [11]: Dose-Dependent Effect

Reference: ChEMBL document CHEMBL5247613, “Design, synthesis and biological evaluation of a new class of Hsp90 inhibitors vibsanin C derivatives” (Eur J Med Chem, 2022)
